# The source made the active and inactive calls. Cut-off read from the data, not from the text of the source: active = IC50 below about 20 µM; inactive = the rest.
# System: Gli-responsive luciferase reporter cells, SUFU pathway antagonism
# Test: Gli-SUFU pathway antagonists, dose response, cell-based, luciferase luminescence, uHTS hits (AID 602464)
row,Compound,IC50
1,Cc1sc2ncnc(NCC(O)c3ccc([N+](=O)[O-])cc3)c2c1C (stereo not drawn),4.75 µM
2,COc1ccccc1CN(Cc1nc2ccccc2c(=O)[nH]1)S(=O)(=O)c1ccc(C)cc1,> 20 µM (inactive)
3,COc1ccc(-c2noc(CCCCC(=O)N3CCN(c4cc(C)ccc4C)CC3)n2)cc1,4 µM
4,COc1ccccc1C(=O)NC(=S)/C=C1/N(C)c2ccccc2C1(C)C,8.55 µM
5,CN(Cc1nccs1)C(=O)c1cc(COc2cccc3cnccc23)on1,12 µM
6,CCN1C(=O)CCN(C2CCCC2)c2nc(Nc3ccc(C(=O)NC4CCN(C)CC4)cc3OC)ncc21,3.45 µM
7,CCCCCCCOc1ccc(OC(=O)c2cccnc2)cc1,1.06 µM
8,Cc1ccc2c(c1)S/C(=C/c1ccc[n+](C)c1)N2CCO,15.2 µM
9,Cc1nnsc1C(=O)NC1CCCc2c1cnn2-c1ccc(F)cc1F (stereo not drawn),8.15 µM
10,c1ccc(-c2cn(-c3ccccc3)c3[n+]2CCS3)cc1,6.57 µM
11,C[C@@H]1COC(=O)[C@@H](NC(=O)OCC2c3ccccc3-c3ccccc32)C/C=C\C[C@@H](CC(=O)N(CCO)Cc2ccccc2)C(=O)N1,> 20 µM (inactive)
12,O=C(Nc1ccccc1)C1=C[C@H](C2CCCCC2)C[C@H](OCCCCO)O1,0.666 µM
13,O=C1N/C(=C\c2ccc(O)cc2)C(O)=C1C=NCc1ccccc1,4.73 µM
14,Cc1c(C(C)C)c(=O)n(-c2ccc(S(=O)(=O)NC3CCCCC3)cc2)n1C,4.15 µM
15,COc1ccc(CN(C)Cc2nc(Cc3cccc(F)c3)no2)c2cccnc12,5.96 µM
16,CCCn1c2c(c(=N)c3c1CCC3)CCCC2,11 µM
17,C[N+]1=C(/C=C/Nc2ccccc2)C(C)(C)c2ccccc21,5.37 µM
18,O=C(COC(=O)c1ccc2[nH]c3c(c2c1)CCCC3)Nc1ccccc1Cl,> 20 µM (inactive)
19,COc1ccc(C(C(=O)NC2CCCCC2)N(C(=O)CCl)c2ccc(Cl)cc2)cc1 (stereo not drawn),4.5 µM
20,FC(F)(F)c1ccc(N2CCN(c3cc(-c4ccccc4)nc4ncnn34)CC2)nc1,3.6 µM
21,COc1ccccc1N1CCN(c2ncc(C(=O)N3CCN(c4cccc(Cl)c4)CC3)c3ccccc23)CC1,6.18 µM
22,CCCCCCCN1C2=NCCCN2c2ccccc21,11.4 µM
23,CCCC(C)C(=O)Nc1nc(C)c(-c2csc(Nc3ccc(Cl)cc3)n2)s1 (stereo not drawn),6.48 µM
24,CCC(C)NC(=O)CCC(=O)OC1O[C@H]2OC3(C)CC[C@H]4[C@H](C)CCC(C1C)C24OO3 (stereo partly drawn),0.421 µM
25,Cc1cc(C)nc(SCC(=O)Nc2ccc(N3CCOCC3)c(Cl)c2)n1,3.52 µM
26,CCCCCCCNC1=CC(=O)CC(c2ccccc2)C1 (stereo not drawn),8.04 µM
27,COc1ccccc1-c1c(-c2ccc(O)cc2O)n[nH]c1C(F)(F)F,4.86 µM

row,Compound,IC50
1,C=CCOc1nc2c(c(=O)n(C)c(=O)n2C)n1Cc1ccc(Cl)cc1,7.97 µM
2,Cc1nc2ccccc2c2c1CC(C(C)(Cl)Br)O2 (stereo not drawn),5.82 µM
3,CC(C)n1c(-c2ccco2)csc1=Nc1cccnc1,8.01 µM
4,C/C(=N\NC(=O)C(=O)Nc1ccc(C)c(Cl)c1)c1ccncc1,1.51 µM
5,c1ccc(-c2c[n+]3c(n2-c2ccccc2)SCC3)cc1,9.72 µM
6,CN1/C(=C\C=N\NC(=O)c2ccc(O)cc2)C(C)(C)c2ccccc21,4.34 µM
7,CCOC(=O)c1c(NC(=O)C(=O)N/N=C/c2ccccc2O)sc2c1CCCCC2,4.39 µM
8,N=c1c2c(n(Cc3ccc(F)cc3)c3c1CCC3)CCCC2,3.82 µM
9,CC1C(OC(=O)CCC(=O)NC(C)(C)CO)O[C@H]2OC3(C)CC[C@H]4[C@H](C)CCC1C24OO3 (stereo partly drawn),0.368 µM
10,Cc1ccc(-c2c[n+](Cc3ccc(Cl)c(Cl)c3)c3n2CCC3)cc1,2.79 µM
11,O=S(=O)(NCc1ccncc1)c1ccc(S(=O)(=O)NCC2CCCO2)cc1 (stereo not drawn),11.5 µM
12,CN1/C(=C\C(=O)COC(=O)CNC(=O)c2ccc3ccccc3c2)C(C)(C)c2ccccc21,9.73 µM
13,C=CCn1c(O)c(N=NC(=S)Nc2cccc(C)c2)c2ccccc21,8.58 µM
14,CN(C)CCn1c2ccccc2c2nc3ccc([N+](=O)[O-])cc3cc21,7.54 µM
15,Clc1ccc(-c2cn(-c3ccc(Cl)cc3)c3[n+]2CCCCC3)cc1,6.44 µM
16,CC(C)CC(NC(=O)CCCNC(=O)CCC(=O)OC1O[C@H]2OC3(C)CC[C@H]4[C@H](C)CCC(C1C)C24OO3)C(=O)O (stereo partly drawn),0.619 µM
17,COc1ccc(Cn2c(-c3ccc(Cl)cc3)c[n+]3ccccc23)cc1,7.28 µM
18,CCC(C)CCN1C(N(C)C)=NC[C@@H]1CC(C)C (stereo partly drawn),7.98 µM
19,Nc1nc2ccccc2n1/N=C/c1ccc([N+](=O)[O-])s1,6.42 µM
20,O=C(c1ccc(C(F)(F)F)cc1)C1CCCN(Cc2ccncc2)C1 (stereo not drawn),5.26 µM
21,CCOc1ccc(OCc2ccc(C(=O)NN=Cc3ccc[nH]3)cc2)cc1,2.44 µM
22,CCN(CC)C(=O)c1ccc(S(=O)(=O)N2CCC(c3nc4ccccc4s3)CC2)cc1,8.85 µM
23,CCN1CCCC1CNc1ncnc2c1[nH]c1ccc(Cl)cc12 (stereo not drawn),> 20 µM (inactive)
24,CCn1c(/C=C/Nc2ccccc2)[n+](CC)c2ccc(Cl)cc21,18.1 µM
25,Clc1ccc(-c2cn(-c3ccccc3)c3[n+]2CCS3)cc1,16.9 µM
26,CCCOc1ccccc1N/C(=N/c1nc(C)cc(C)n1)NC(=O)COc1ccc(OC)cc1,7.7 µM
